Experimental data reported in US12516060B2, “Solid freebase forms of 5-chloro-2-(4-((2-hydroxy-2-methylpropyl)amino)pyrido[3,4-d]pyridazin-1-yl)phenol for inhibiting NLRP3 and uses thereof” (Ventus Therapeutics U.S., Inc., priority 2023, dated 2026).
Entries after “also recorded” stand apart in the source; their conditions may differ.

Legend:
Type in all cases: physicochemical
[1] = Dynamic Vapor Sorption (DVS)
Experimental: DVS was performed using TA Instruments Q5000SA. The sample (5-15 mg) was loaded into a metallic quartz sample pan, suspended from a microbalance, and exposed to a humidified stream of nitrogen gas. Weight changes were relative to a matching empty reference pan opposite the sample, suspended from the microbalance. The sample was held for a minimum of 10 min at each level and only progressed to the next humidity level if there was <0.002% change in weight between measurements (interval: 5 s) or 45 min had elapsed (for 5-65% RH) or 2 h had elapsed (for 80 and 95% RH). Mass change by DVS is related to hygroscopicity.

[2] = Solid form stability studies, 75% RH at 40° C. for one week (XRPD and HPLC)
Experimental: Solid form stability studies were performed on Form I-V freebase forms by weighing approximately 10-15 mg of the crystalline material into 4 mL vials and covering with a lab grade task wipe (Kimwipe). These vials were placed inside a stability chamber set at 75%±5% relative humidity (RH) at 40° C.±2° C., where they were left for one week (7 full days). The retrieved material was then analyzed by XRPD and HPLC. In each case, the initial material and tested material were identical by XRPD, with the exception of Form I freebase, where an extra peak at 5.8 °2θ in the initial material was absent after the stability test. HPLC purities of the tested material were essentially unchanged from those of the initial material.

[3] = Second set of competitive slurry experiments (Form V vs Form I and Form II)
Experimental: A second set of competitive slurry experiments was set up in three solvent systems and two temperatures to assess the relative stability of Form V freebase with respect to Form I freebase and Form II freebase. […] In all samples, the input seed patterns were observed less than 1 min after addition. […] After 7 days, the quantity of Form II freebase remaining in the RT acetonitrile sample was greatly diminished, though Form II freebase was still present in trace quantities.

## CC(C)(O)CNc1nnc(-c2ccc(Cl)cc2O)c2ccncc12 [Form V freebase, 5-chloro-2-(4-((2-hydroxy-2-methylpropyl)amino)pyrido[3,4-d]pyridazin-1-yl)phenol]
[1]; 5-95% RH
  DVS mass change 5-95% RH (wt. %): 0.20 wt. %
[1]; DVS, 5-95% RH
  water uptake, weight gain between 5-95% relative humidity (RH): about 0.20%
[1]; DVS, all adsorbed water lost during the drying cycle
  hygroscopicity: slightly, hygroscopic
[1]; Forms I-V
  relative hygroscopicity among the Forms studied by DVS: least hygroscopic
[1]; form stability after DVS cycle
  XRPD pre- and post-DVS: remained unchanged
[2]; 75% ± 5% RH at 40° C. ± 2° C. for 1 week
  XRPD (tested material): Form V
[2]; HPLC, after 75% ± 5% RH at 40° C. ± 2° C. for 1 week
  Purity % a/a (tested material): 99.60 % a/a
[2]; HPLC, before stability test
  Purity % a/a (input material): 99.46 % a/a
[2]; one-week at 75% RH and 40° C.
  solid-form and chemical stability at elevated RH: no form change or purity decrease
[3]; acetonitrile, MeOH, acetone:water (7:3 vol.), RT and 50° C., 3 days
  form observed by XRPD after 3 days: the sole form observed in all experiments, except in acetonitrile at RT
[3]; second set of slurries, various solvent systems
  relative (thermodynamic) stability vs Form I and Form II: favored over both Form I and II freebase; also recorded: most thermodynamically stable form studied
